Test results reported in patent publication US20040038369A1, “Airway-specific trypsin-like enzymes and method of using the same” (priority 2000, published 2004).

Columns and labels:
EGFR = experiment: Tyrosine phosphorylation of EGFR in NCI-H292 cells; format: cell-based, human; details: HAST 0.3 U/mL, 30 to 240 minutes
Protocol: NCI-H292 cells (purchased from ATCC) were suspended in 10% FCS-containing RPMI-1640 (produced by Gibco Corp.) and then sowed on a 12 well plate (made by Falcon Corp.) in a density of 6.0×10^4 cells/cm^2. The cells were cultured for 72 hours, subjected to the replacement of the culture medium by 0.1% BSA-containing RPMI-1640, and further cultured for 24 hours.
On the day of the treatment, the culture solution of the wells was replaced by RPMI-1640 (containing 0.1% BSA) containing HAST (0.3 U/mL), EGF (1 μg/mL), and the treatments were carried out for 30, 60, 120, 180, 240 minutes, respectively.
The cells treated with the HAST or the EGF for the prescribed time were twice washed with ice-cooled PBS, mixed with 500 μL of an ice-cooled Lysis buffer solution (50 mM Tris-HCl, pH 7.4, 5 mM EDTA, 1% Triton X-100 (Sigma), 150 mM NaCl, 10% glycerol, 1% Protease inhibitor Cocktail (Sigma), 1% Phosphatase Inhibitor Cocktail (Sigma)), allowed to stand on ice for 15 minutes, and then recovered in a micro tube. The recovered product in the micro tube was centrifuged at 15,000 rpm at 4° C. for 10 minutes, and the supernatant was recovered as a sample. The protein concentration of the sample was assayed with BioRad Protein Assay (produced by Bio Rad Corp.), and properly diluted with the Lysis buffer solution so that the protein concentrations in all the samples become 1.48 mg/mL. […]

[1] = system: normal human airway epithelial cells; experiment: Calcium influx in normal human airway epithelial cells; format: cell-based; details: AST 2 units/mL; trypsin 10 to 100 units/mL; SFLLRNamide 100 μM
Protocol: The Ca^2+ influx due to the AST was examined with confluent normal epithelial cells adhered to three 10 cm dishes (purchased from BioWhittaker Corp.). The cells were peeled with a 10 mM EDTA/HEPES-Tyrode buffer solution for 10 minutes, recovered by a centrifugal treatment at 800 rpm at room temperature for 5 minutes, and then resuspended in 5 mL of HEPES-Tyrode buffer solution-Ca^2+ (−) pH 7.4. The recovered cells (about 1.2×10^6 cells) were suspended in 5 mL of HEPES-Tyrode buffer solution (1 μg/mL, containing Fura2-AM) to load the Fura2-AM to the cells at 37° C. for one hour. The cells were recovered by a centrifugal treatment at 800 rpm at room temperature for 5 minutes, twice washed with HEPES-Tyrode buffer solution-Ca^2+ (−) pH 7.4, and then resuspended in […] of HEPES-Tyrode buffer solution-Ca^2+ (−) pH 7.4. The cell suspension was mixed with 5 μL of 1M CaCl2 to give a final concentration of 1 mM CaCl2, and then incubated in a shaded state at room temperature for 5 minutes. The prepared Fura2-AM-loaded infected cells were dispensed into a 96 well plate in a volume of 100 μL/well, further subjected to the dispensation of HEPES-Tyrode buffer solution-Ca^2+ (+) pH 7.4 in a volume of 80 μL/well, and then assayed with Fluorescence Drug Screening System (Hamamatsu Photonics Co.). […]

PAR-1 = target: T1, PAR-1 (Homo sapiens, UniProt P25116); experiment: Calcium influx in PAR-1-expressing insect cells; format: cell-based; details: AST 2 units/mL; trypsin, thrombin 0.1 to 10 units/mL; SFLLRNamide 10 to 100 μM
T1 construct: expressed in transfected cells; host or cells: Sf9 insect cells infected with recombinant baculovirus VL-PAR (pVL1393)
T1 sequence (P25116 22-425): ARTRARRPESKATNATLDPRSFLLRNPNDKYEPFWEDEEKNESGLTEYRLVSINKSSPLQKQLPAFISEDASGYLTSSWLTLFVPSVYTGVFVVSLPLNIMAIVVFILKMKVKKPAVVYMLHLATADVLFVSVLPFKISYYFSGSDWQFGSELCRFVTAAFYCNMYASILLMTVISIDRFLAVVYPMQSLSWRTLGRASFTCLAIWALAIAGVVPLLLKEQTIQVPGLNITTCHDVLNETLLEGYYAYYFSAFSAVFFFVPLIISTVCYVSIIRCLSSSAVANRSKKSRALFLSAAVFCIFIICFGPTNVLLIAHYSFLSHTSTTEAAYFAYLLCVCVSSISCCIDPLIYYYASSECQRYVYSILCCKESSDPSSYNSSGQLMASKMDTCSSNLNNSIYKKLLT
Protocol: The above-obtained recombinant baculovirus VL-PAR for expressing the PAR was used to infect 1.0×10^7 Sf9 cells sowed on a 75 cm^2 flask at an MOI=2, and was then left and stationally cultured at 27° C. for 40 hours. After the culture, the infected cells were recovered and then subjected to a calcium influx experiment to-confirm the function of the PAR.
The recovered infected cells (about 5×10^6 cells) were once washed with HEPES-Tyrode buffer solution-Ca^2+ (−) pH 7.4, and then suspended in 5 mL of HEPES-Tyrode buffer solution (containing Fura2-AM, 1 μg/mL) to load the Fura2-AM on the cells at 27° C. for 30 minutes. The suspension was centrifuged at 800 rpm at room temperature for 5 minutes to recover the cells. The cells were twice washed with HEPES-Tyrode buffer solution-Ca^2+ (−) pH 7.4 and then resuspended in 5 mL of HEPES-Tyrode buffer solution-Ca^2+ (−) pH 7.4. The cell suspension was mixed with 5 μL of 1M CaCl2 to give a final concentration of 1 mM CaCl2, and then incubated in a shaded state at room temperature for 5 minutes. The prepared Fura2-AM-loaded infected cells were dispensed into a 96 well plate in a volume of 100 μL/well, further subjected to the dispensation of HEPES-Tyrode buffer solution-C^2+ (+) pH 7.4 in a volume of 80 μL/well, and then assayed with a Fluorescence Drug Screening System (made by Hamamatsu Photonics Co.). Namely, [intensity of 500 nm fluorescent light due to 340 nm exciting light]/[intensity of 500 nm fluorescent light due to 380 nm exciting light] (reflecting the concentration of calcium in the cells) was assayed.

HAST: human airway-specific trypsin-like enzyme; propeptide moiety bound to trypsin-like protein moiety via a disulfide bond
tyrosine phosphorylation of EGFR (EGFR): activated EGFR | Ca2+ influx [1]: observed | Ca2+ influx (PAR-1): observed
